This note sets out measurements from US8071605B2, “Piperidine compounds for use in the treatment of bacterial infections” (AstraZeneca AB, priority 2008, dated 2011).

The structures appear in SMILES notation.

For the test, the target named is S. aureus GyrB ATPase (Staphylococcus aureus, UniProt P0A0K8). The experiment in a line: S. aureus GyrB ATPase inhibition (ammonium molybdate/malachite green phosphate detection). It counts as biochemical. Conditions: compound concentration of 1 μM (unless otherwise noted). On the procedure:
E. coli GyrB ATPase Inhibition Activity: Compounds can be tested for inhibition of E. coli GyrB ATPase activity using an ammonium molybdate/malachite green-based phosphate detection assay (Lanzetta, P. A., L. J. Alvarez, P. S. Reinach, and O. A. Candia, 1979, 100: 95-97). Assays can be performed in multiwell plates in 30 μl reactions containing: 50 mM Hepes buffer pH 7.5, 75 mM ammonium acetate, 8.0 mM magnesium chloride, 0.5 mM ethylenediaminetetraacetic acid, 5% glycerol, 1 mM 1,4-Dithio-DL-threitol, 200 nM bovine serum albumin, 1.6 μg/ml sheared salmon sperm DNA, 400 pM E. coli GyrA, 400 pM E. coli GyrB, 250 μM ATP, and compound in dimethylsulfoxide. Reactions can be quenched with 30 μl of ammonium molybdate/malachite green detection reagent containing 1.2 mM malachite green hydrochloride, 8.5 mM ammonium molybdate tetrahydrate, and 1 M hydrochloric acid. Plates can be read in an absorbance plate reader at 650 nm and percent inhibition values are calculated using dimethylsulfoxide (2%)-containing reactions as 0% inhibition and EDTA-containing (2.4 μM) reactions as 100% inhibition controls. An IC50 measurement of compound potency for each compound can be determined from reactions performed in the presence of 10 different compound concentrations. E. coli Topoisomerase IV ATPase Inhibition Activity: Compounds can be tested for inhibition of E. coli topoisomerase IV ATPase activity as described above for E. coli GyrB except the 30 μl reactions contained the following: 20 mM TRIS buffer pH 8, 50 mM ammonium acetate, 8 mM magnesium chloride, 5% glycerol, 5 mM 1,4-Dithio-DL-threitol, 0.005% Brij-35, 5 μg/ml sheared salmon sperm DNA, 500 pM E. coli ParC, 500 pM E. coli ParE, 160 μM ATP, and compound in dimethylsulfoxide. An IC50 measurement of compound potency for each compound can be determined from reactions performed in the presence of 10 different compound concentrations. S. aureus GyrB ATPase Inhibition Activity: Compounds may be tested for inhibition of S. aureus GyrB ATPase activity using an ammonium molybdate/malachite green-based phosphate detection assay (Lanzetta, P. A., L. J. Alvarez, P. S. Reinach, and O. A. Candia, 1979, 100: 95-97). Assays can be performed in multiwell plates in 30 μl reactions containing: 50 mM Hepes buffer pH 7.5, 75 mM ammonium acetate, 8.0 mM magnesium chloride, 0.5 mM ethylenediaminetetraacetic acid, 5% glycerol, 1.0 mM 1,4-Dithio-DL-threitol, 200 nM bovine serum albumin, 1.0 μg/ml sheared salmon sperm DNA, 250 pM E. coli GyrA, 250 pM S. aureus GyrB, 250 μM ATP, and compound in dimethylsulfoxide. Reactions can be quenched with 30 μl of ammonium molybdate/malachite green detection reagent containing 1.2 mM malachite green hydrochloride, 8.5 mM ammonium molybdate tetrahydrate, and 1 M hydrochloric acid. Plates can be read in an absorbance plate reader at 650 nm and percent inhibition values can be calculated using dimethylsulfoxide (2%)-containing reactions as 0% inhibition and EDTA-containing (2.4 μM) reactions as 100% inhibition controls. An IC50 measurement of compound potency for each compound can be determined from reactions performed in the presence of 10 different compound concentrations.
Compounds of the invention were tested in an assay substantially similar to the assay described above for measuring the inhibition of S. aureus GyrB ATPase. Percent inhibition of S. aureus GyrB ATPase at a compound concentration of 1 μM (unless otherwise noted) is disclosed in the following table: […]

S. aureus GyrB ATPase, sequence (P0AES4 whole entry): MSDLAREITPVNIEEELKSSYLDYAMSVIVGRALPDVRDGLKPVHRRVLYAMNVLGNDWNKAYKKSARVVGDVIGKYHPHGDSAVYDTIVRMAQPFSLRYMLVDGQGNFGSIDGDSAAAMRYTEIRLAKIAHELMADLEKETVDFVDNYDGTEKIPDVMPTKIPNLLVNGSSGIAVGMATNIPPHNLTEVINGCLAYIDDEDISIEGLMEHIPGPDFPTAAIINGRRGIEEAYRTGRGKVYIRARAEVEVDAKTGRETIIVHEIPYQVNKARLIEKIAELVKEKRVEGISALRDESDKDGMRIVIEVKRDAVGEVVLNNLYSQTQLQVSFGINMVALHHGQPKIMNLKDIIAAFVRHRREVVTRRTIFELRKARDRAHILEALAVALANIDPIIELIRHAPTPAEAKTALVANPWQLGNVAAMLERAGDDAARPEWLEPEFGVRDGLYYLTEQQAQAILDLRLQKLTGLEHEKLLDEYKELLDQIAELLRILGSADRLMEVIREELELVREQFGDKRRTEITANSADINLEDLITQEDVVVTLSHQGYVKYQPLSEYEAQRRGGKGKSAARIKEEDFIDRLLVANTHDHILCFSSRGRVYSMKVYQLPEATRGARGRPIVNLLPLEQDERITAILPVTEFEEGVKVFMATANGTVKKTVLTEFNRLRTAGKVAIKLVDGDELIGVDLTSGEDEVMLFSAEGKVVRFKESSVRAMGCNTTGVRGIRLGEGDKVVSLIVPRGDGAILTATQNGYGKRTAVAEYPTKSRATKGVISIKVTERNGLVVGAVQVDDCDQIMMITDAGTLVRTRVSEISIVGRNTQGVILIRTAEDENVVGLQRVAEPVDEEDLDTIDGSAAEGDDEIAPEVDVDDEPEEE
S. aureus GyrB ATPase, sequence (P0A0K8 whole entry): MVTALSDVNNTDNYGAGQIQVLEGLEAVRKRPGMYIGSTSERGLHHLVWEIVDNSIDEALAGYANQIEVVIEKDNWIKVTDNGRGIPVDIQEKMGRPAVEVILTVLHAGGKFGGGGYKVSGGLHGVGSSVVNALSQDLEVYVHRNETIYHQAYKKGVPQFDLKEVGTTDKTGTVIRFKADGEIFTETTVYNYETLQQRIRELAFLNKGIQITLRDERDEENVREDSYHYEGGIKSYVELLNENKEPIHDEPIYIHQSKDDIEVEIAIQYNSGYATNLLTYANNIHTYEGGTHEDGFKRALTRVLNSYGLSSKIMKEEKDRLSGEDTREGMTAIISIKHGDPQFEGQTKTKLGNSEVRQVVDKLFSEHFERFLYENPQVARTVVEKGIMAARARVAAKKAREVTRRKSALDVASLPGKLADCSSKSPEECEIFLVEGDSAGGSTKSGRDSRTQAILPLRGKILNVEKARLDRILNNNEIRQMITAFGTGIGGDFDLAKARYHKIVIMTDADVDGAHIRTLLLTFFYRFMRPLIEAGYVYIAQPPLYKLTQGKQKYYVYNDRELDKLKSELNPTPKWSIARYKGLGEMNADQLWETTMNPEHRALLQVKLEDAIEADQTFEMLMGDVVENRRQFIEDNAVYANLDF

Turning to `C=CCO[C@H]1CN(c2nc(-c3ncnn3C)c(C(=O)O)s2)CC[C@H]1NC(=O)c1[nH]c(C)c(Cl)c1Cl` [Example 1, 2-[(3S,4R)-4-{[(3,4-dichloro-5-methyl-1H-pyrrol-2-yl)carbonyl]amino}-3-(prop-2-en-1-yloxy)piperidin-1-yl]-4-(1-methyl-1H-1,2,4-triazol-5-yl)-1,3-thiazole-5-carboxylic acid], the inhibition at 1 µM came out at 99%.

For `C=CCO[C@H]1CN(c2nc(-c3nccn3CCOC)c(C(=O)O)s2)CC[C@H]1NC(=O)c1[nH]c(C)c(Cl)c1Cl` [Example 2], the inhibition at 1 µM is 103%.

As to `C=CCO[C@H]1CN(c2nc(-c3cnccn3)c(C(=O)O)s2)CC[C@H]1NC(=O)c1[nH]c(C)c(Cl)c1Cl` [Example 4], the inhibition at 1 µM was determined as 97%.

With `C=CCO[C@H]1CN(c2nc(-c3ncnn3C)c(C(=O)O)s2)CC[C@H]1NC(=O)c1[nH]c(C)c(Cl)c1C#N` [Example 5], the inhibition at 1 µM was found to be 5%.

For the compound `C=CCO[C@H]1CN(c2nc(-c3ncccc3F)c(C(=O)O)s2)CC[C@H]1NC(=O)c1[nH]c(C)c(Cl)c1C#N` [Example 6], the inhibition at 1 µM was 99%.

For the compound `CCO[C@H]1CN(c2nc(-c3ncnn3C)c(C(=O)O)s2)CC[C@H]1NC(=O)c1[nH]c(C)c(Cl)c1Cl` [Example 8], the inhibition at 1 µM is 100%.

`CCO[C@H]1CN(c2nc(-c3nccn3CCOC)c(C(=O)O)s2)CC[C@H]1NC(=O)c1[nH]c(C)c(Cl)c1Cl` [Example 9]: the inhibition at 1 µM came to 98%.

Turning to `CCO[C@H]1CN(c2nc(-c3ncccc3F)c(C(=O)O)s2)CC[C@H]1NC(=O)c1[nH]c(C)c(Cl)c1Cl` [Example 10], the inhibition at 1 µM was determined as 90%.

Turning to `CCO[C@H]1CN(c2nc(-c3cnccn3)c(C(=O)O)s2)CC[C@H]1NC(=O)c1[nH]c(C)c(Cl)c1Cl` [Example 11], the inhibition at 1 µM turned out to be 101%.

`CCO[C@H]1CN(c2nc(-c3ncnn3C)c(C(=O)O)s2)CC[C@H]1NC(=O)c1[nH]c(C)c(Cl)c1C#N` [Example 12]: the inhibition at 1 µM was 106%.

Take `CCO[C@H]1CN(c2nc(-c3ncnn3CCOC)c(C(=O)O)s2)CC[C@H]1NC(=O)c1[nH]c(C)c(Cl)c1C#N` [Example 13]: the inhibition at 1 µM turned out to be 99%.

Take `CCO[C@H]1CN(c2nc(-c3ncccc3F)c(C(=O)O)s2)CC[C@H]1NC(=O)c1[nH]c(C)c(Cl)c1C#N` [Example 14]: the inhibition at 1 µM turned out to be 91%.

In the case of `CCO[C@H]1CN(c2nc(-c3cnccn3)c(C(=O)O)s2)CC[C@H]1NC(=O)c1[nH]c(C)c(Cl)c1C#N` [Example 15], the inhibition at 1 µM amounted to 98%.

Take `CCO[C@H]1CN(c2nc(-c3ncnn3C)c(C(=O)O)s2)CC[C@H]1NC(=O)c1cc(Cl)c(C)[nH]1` [Example 16]: the inhibition at 1 µM stood at 103%.

In the case of `CCO[C@H]1CN(c2nc(-c3ncccc3F)c(C(=O)O)s2)CC[C@H]1NC(=O)c1cc(Cl)c(C)[nH]1` [Example 17], the inhibition at 1 µM came out at 106%.

`CCO[C@H]1CN(c2nc(-c3cnccn3)c(C(=O)O)s2)CC[C@H]1NC(=O)c1cc(Cl)c(C)[nH]1` [Example 18]: the inhibition at 1 µM is 108%.

As for `Cc1[nH]c(C(=O)N[C@@H]2CCN(c3nc(-c4ncnn4C)c(C(=O)O)s3)C[C@@H]2C)cc1Cl` [Example 19], the inhibition at 1 µM stood at 112%.

In the case of `Cc1[nH]c(C(=O)N[C@@H]2CCN(c3nc(-c4ncccc4F)c(C(=O)O)s3)C[C@@H]2C)cc1Cl` [Example 20], the inhibition at 1 µM was 118%.

For the compound `Cc1[nH]c(C(=O)N[C@@H]2CCN(c3nc(-c4cnccn4)c(C(=O)O)s3)C[C@@H]2C)cc1Cl` [Example 21], the inhibition at 1 µM worked out at 118%.

On to `Cc1[nH]c(C(=O)N[C@@H]2CCN(c3nc(-c4ncnn4C)c(C(=O)O)s3)C[C@@H]2C)c(Cl)c1Cl` [Example 22], for which the inhibition at 1 µM came to 112%.

Take `Cc1[nH]c(C(=O)N[C@@H]2CCN(c3nc(-c4ncccc4F)c(C(=O)O)s3)C[C@@H]2C)c(Cl)c1Cl` [Example 24]: the inhibition at 1 µM came out at 120%.

On to `Cc1[nH]c(C(=O)N[C@@H]2CCN(c3nc(-c4cnccn4)c(C(=O)O)s3)C[C@@H]2C)c(Cl)c1Cl` [Example 25], for which the inhibition at 1 µM came to 119%.

On to `Cc1[nH]c(C(=O)N[C@@H]2CCN(c3nc(-c4ncnn4C)c(C(=O)O)s3)C[C@@H]2C)c(C#N)c1Cl` [Example 26], for which the inhibition at 1 µM is 97%.

As to `COCCn1ccnc1-c1nc(N2CC[C@@H](NC(=O)c3[nH]c(C)c(Cl)c3C#N)[C@@H](C)C2)sc1C(=O)O` [Example 27], the inhibition at 1 µM turned out to be 102%.

For `Cc1[nH]c(C(=O)N[C@@H]2CCN(c3nc(-c4ncccc4F)c(C(=O)O)s3)C[C@@H]2C)c(C#N)c1Cl` [Example 28], the inhibition at 1 µM came to 98%.

Consider `Cc1[nH]c(C(=O)N[C@@H]2CCN(c3nc(-c4cnccn4)c(C(=O)O)s3)C[C@@H]2C)c(C#N)c1Cl` [Example 29], for which the inhibition at 1 µM came to 98%.

As to `CO[C@@H]1CN(c2nc(-c3cnc(N4CCN(C)CC4)cn3)c(C(=O)O)s2)CC[C@@H]1NC(=O)c1[nH]c(C)c(Cl)c1Cl` [Example 61, 2-[(3R,4S)-4-{[(3,4-dichloro-5-methyl-1H-pyrrol-2-yl)carbonyl]amino}-3-methoxypiperidin-1-yl]-4-[5-(4-methylpiperazin-1-yl)pyrazin-2-yl]-1,3-thiazole-5-carboxylic acid], the inhibition at 1 µM is 105%.

In the case of `CO[C@H]1CN(c2nc(-c3cnc(OCCN4CCCC4)cn3)c(C(=O)O)s2)CC[C@H]1NC(=O)c1[nH]c(C)c(Cl)c1Cl` [Example 62, 2-[(3S,4R)-4-{[(3,4-dichloro-5-methyl-1H-pyrrol-2-yl)carbonyl]amino}-3-methoxypiperidin-1-yl]-4-{5-[2-(pyrrolidin-1-yl)ethoxy]pyrazin-2-yl}-1,3-thiazole-5-carboxylic acid], the inhibition at 1 µM stood at 98%.

For the compound `CO[C@H]1CN(c2nc(-c3cnc(OCCN(C)C)cn3)c(C(=O)O)s2)CC[C@H]1NC(=O)c1[nH]c(C)c(Cl)c1Cl` [Example 63], the inhibition at 1 µM came to 104%.

`CO[C@H]1CN(c2nc(-c3cnc(OCCN4CCN(C)CC4)cn3)c(C(=O)O)s2)CC[C@H]1NC(=O)c1[nH]c(C)c(Cl)c1Cl` [Example 64]: the inhibition at 1 µM came out at 104%.

In the case of `CO[C@H]1CN(c2nc(-c3cnc(OCCC4CCN(C)CC4)cn3)c(C(=O)O)s2)CC[C@H]1NC(=O)c1[nH]c(C)c(Cl)c1Cl` [Example 65], the inhibition at 1 µM stood at 107%.

`CCO[C@H]1CN(c2nc(-c3cnc(N4CCCCC4)cn3)c(C(=O)O)s2)CC[C@H]1NC(=O)c1[nH]c(C)c(Cl)c1Cl` [Example 86, 2-[(3S,4R)-4-{[(3,4-dichloro-5-methyl-1H-pyrrol-2-yl)carbonyl]amino}-3-ethoxypiperidin-1-yl]-4-[5-(piperidin-1-yl)pyrazin-2-yl]-1,3-thiazole-5-carboxylic acid]: the inhibition at 1 µM worked out at 105%.

As to `CCO[C@H]1CN(c2nc(-c3cnc(N4CCOCC4)cn3)c(C(=O)O)s2)CC[C@H]1NC(=O)c1[nH]c(C)c(Cl)c1Cl` [Example 87], the inhibition at 1 µM stood at 109%.

Regarding `CCO[C@H]1CN(c2nc(-c3cnc(N4CCN(C)CC4)cn3)c(C(=O)O)s2)CC[C@H]1NC(=O)c1[nH]c(C)c(Cl)c1Cl` [Example 88], the inhibition at 1 µM was 107%.

For `CCO[C@H]1CN(c2nc(-c3cnc(N4CCNCC4)cn3)c(C(=O)O)s2)CC[C@H]1NC(=O)c1[nH]c(C)c(Cl)c1Cl` [Example 89], the inhibition at 1 µM was 110%.

As for `CCO[C@H]1CN(c2nc(-c3cnc(NCCOC)cn3)c(C(=O)O)s2)CC[C@H]1NC(=O)c1[nH]c(C)c(Cl)c1Cl` [Example 90], the inhibition at 1 µM turned out to be 103%.

Regarding `CCO[C@H]1CN(c2nc(-c3cnc(NCCN4CCOCC4)cn3)c(C(=O)O)s2)CC[C@H]1NC(=O)c1[nH]c(C)c(Cl)c1Cl` [Example 91], the inhibition at 1 µM is 105%.

Consider `CCO[C@H]1CN(c2nc(-c3cnc(NC(COC)COC)cn3)c(C(=O)O)s2)CC[C@H]1NC(=O)c1[nH]c(C)c(Cl)c1Cl` [Example 92], for which the inhibition at 1 µM is 102%.

What is called inhibition is the change of the read-out against control, counted positive when it falls.
